ChEMBL document CHEMBL1201862, “PubChem BioAssay data set” (2004)
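A five-concentration, 48-hour dose response in 96-well plates underlies each endpoint, interpolated linearly between surrounding concentrations. Here, GI50 denotes the concentration required for 50% inhibition of growth.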 Activity calls are given as the source filed them. Rule as the data show it: active = GI50 up to about 1.1 µM and inactive = higher.

Assays:
Assay in all cases: inhibition of tumour cell growth, NCI panel, 48 h
SN12C = system: SN12C
NCI-H460 = system: NCI-H460
MCF7 = system: MCF7
LOX IMVI = system: LOX IMVI
NCI-H226 = system: NCI-H226
UO-31 = system: UO-31
CCRF-CEM = system: CCRF-CEM
SNB-75 = system: SNB-75
NCI-H522 = system: NCI-H522
RPMI-8226 = system: RPMI-8226
Hs-578T = system: Hs-578T
OVCAR-3 = system: OVCAR-3
SK-MEL-2 = system: SK-MEL-2
EKVX = system: EKVX
MOLT-4 = system: MOLT-4
DU-145 = system: DU-145
SF-539 = system: SF-539
SF-295 = system: SF-295
HL-60 = system: HL-60
A498 = system: A498
A549 = system: A549
COLO 205 = system: COLO 205
SK-MEL-5 = system: SK-MEL-5
OVCAR-8 = system: OVCAR-8
KM12 = system: KM12
OVCAR-5 = system: OVCAR-5
MDA-MB-435 = system: MDA-MB-435
ACHN = system: ACHN
MDA-N = system: MDA-N
NCI/ADR-RES = system: NCI/ADR-RES
MDA-MB-231 = system: MDA-MB-231
SW-620 = system: SW-620
OVCAR-4 = system: OVCAR-4
SK-MEL-28 = system: SK-MEL-28
SR = system: SR
BT-549 = system: BT-549
IGROV-1 = system: IGROV-1
UACC-62 = system: UACC-62
HCC 2998 = system: HCC 2998
HCT-116 = system: HCT-116
TK-10 = system: TK-10
M14 = system: M14
K562 = system: K562
786-0 = system: 786-0
PC-3 = system: PC-3
NCI-H23 = system: NCI-H23
U-251 = system: U-251
T47D = system: T47D
HOP-92 = system: HOP-92
CAKI-1 = system: CAKI-1
HT-29 = system: HT-29
UACC-257 = system: UACC-257
RXF 393 = system: RXF 393
SK-OV-3 = system: SK-OV-3
HCT-15 = system: HCT-15
SNB-19 = system: SNB-19
SF-268 = system: SF-268
Malme-3M = system: Malme-3M
HOP-62 = system: HOP-62

Q: For CC(=O)O[C@H]1C[C@]2(C)C(CCC3O[C@@]32C)[C@@]2(CC(c3ccoc3)OC2O)[C@@H]1C (stereo not given in full), which GI50 (SN12C) is on record?
A: > 100 µM (inactive)

Q: And the GI50 (NCI-H460)?
A: 60.8 µM (inactive)

Q: And the GI50 (MCF7)?
A: 44.3 µM (inactive)

Q: What about the GI50 (LOX IMVI) of the same compound?
A: 78.3 µM (inactive)

Q: And the GI50 (NCI-H226)?
A: > 100 µM (inactive)

Q: And the GI50 (UO-31)?
A: 59.3 µM (inactive)

Q: And the GI50 (CCRF-CEM)?
A: 30.7 µM (inactive)

Q: What about the GI50 (SNB-75) of the same compound?
A: > 100 µM (inactive)

Q: And the GI50 (NCI-H522)?
A: 44.3 µM (inactive)

Q: What about the GI50 (RPMI-8226) of the same compound?
A: 28.9 µM (inactive)

Q: And the GI50 (Hs-578T)?
A: > 100 µM (inactive)

Q: And the GI50 (OVCAR-3)?
A: 60.7 µM (inactive)

Q: What about the GI50 (SK-MEL-2) of the same compound?
A: > 100 µM (inactive)

Q: What about the GI50 (EKVX) of the same compound?
A: > 100 µM (inactive)

Q: What about the GI50 (MOLT-4) of the same compound?
A: 29.6 µM (inactive)

Q: And the GI50 (DU-145)?
A: > 100 µM (inactive)

Q: And the GI50 (SF-539)?
A: > 100 µM (inactive)

Q: And the GI50 (SF-295)?
A: > 100 µM (inactive)

Q: And the GI50 (HL-60)?
A: 21.6 µM (inactive)

Q: What about the GI50 (A498) of the same compound?
A: > 100 µM (inactive)

Q: What about the GI50 (A549) of the same compound?
A: > 100 µM (inactive)

Q: What about the GI50 (COLO 205) of the same compound?
A: > 100 µM (inactive)

Q: What about the GI50 (SK-MEL-5) of the same compound?
A: 50 µM (inactive)

Q: What about the GI50 (OVCAR-8) of the same compound?
A: > 100 µM (inactive)

Q: And the GI50 (KM12)?
A: 78.3 µM (inactive)

Q: What about the GI50 (OVCAR-5) of the same compound?
A: > 100 µM (inactive)

Q: And the GI50 (MDA-MB-435)?
A: 86.7 µM (inactive)

Q: What about the GI50 (ACHN) of the same compound?
A: > 100 µM (inactive)

Q: And the GI50 (MDA-N)?
A: > 100 µM (inactive)

Q: And the GI50 (NCI/ADR-RES)?
A: > 100 µM (inactive)

Q: What about the GI50 (MDA-MB-231) of the same compound?
A: > 100 µM (inactive)

Q: What about the GI50 (SW-620) of the same compound?
A: > 100 µM (inactive)

Q: What about the GI50 (OVCAR-4) of the same compound?
A: 41 µM (inactive)

Q: And the GI50 (SK-MEL-28)?
A: > 100 µM (inactive)

Q: And the GI50 (SR)?
A: 39.2 µM (inactive)

Q: And the GI50 (BT-549)?
A: 40 µM (inactive)

Q: And the GI50 (IGROV-1)?
A: > 100 µM (inactive)

Q: What about the GI50 (UACC-62) of the same compound?
A: 37.6 µM (inactive)

Q: And the GI50 (HCC 2998)?
A: > 100 µM (inactive)

Q: And the GI50 (HCT-116)?
A: 60.8 µM (inactive)

Q: And the GI50 (TK-10)?
A: > 100 µM (inactive)

Q: And the GI50 (M14)?
A: > 100 µM (inactive)

Q: What about the GI50 (K562) of the same compound?
A: 35.8 µM (inactive)

Q: And the GI50 (786-0)?
A: > 100 µM (inactive)

Q: What about the GI50 (PC-3) of the same compound?
A: 50.1 µM (inactive)

Q: What about the GI50 (NCI-H23) of the same compound?
A: 72.3 µM (inactive)

Q: And the GI50 (U-251)?
A: > 100 µM (inactive)

Q: What about the GI50 (T47D) of the same compound?
A: 39.3 µM (inactive)

Q: What about the GI50 (HOP-92) of the same compound?
A: > 100 µM (inactive)

Q: And the GI50 (CAKI-1)?
A: > 100 µM (inactive)

Q: And the GI50 (HT-29)?
A: 75.9 µM (inactive)

Q: What about the GI50 (UACC-257) of the same compound?
A: 63.4 µM (inactive)

Q: And the GI50 (RXF 393)?
A: > 100 µM (inactive)

Q: And the GI50 (SK-OV-3)?
A: > 100 µM (inactive)

Q: What about the GI50 (HCT-15) of the same compound?
A: 37.8 µM

Q: What about the GI50 (SNB-19) of the same compound?
A: > 100 µM (inactive)

Q: And the GI50 (SF-268)?
A: > 100 µM (inactive)

Q: Clc1ccc(/C(=C/c2ccccc2)Cn2ccnc2)cc1 was tested. Which GI50 (SN12C) did it give?
A: 22.1 µM (inactive)

Q: And the GI50 (NCI-H460)?
A: 26.9 µM (inactive)

Q: What about the GI50 (MCF7) of the same compound?
A: 20.4 µM (inactive)

Q: What about the GI50 (LOX IMVI) of the same compound?
A: 19.2 µM (inactive)

Q: And the GI50 (NCI-H226)?
A: 12.9 µM (inactive)

Q: What about the GI50 (UO-31) of the same compound?
A: 3.39 µM (inactive)

Q: What about the GI50 (CCRF-CEM) of the same compound?
A: 17.5 µM (inactive)

Q: And the GI50 (SNB-75)?
A: 18.6 µM (inactive)

Q: What about the GI50 (Malme-3M) of the same compound?
A: 8.97 µM (inactive)

Q: And the GI50 (NCI-H522)?
A: 11.9 µM (inactive)

Q: What about the GI50 (HOP-62) of the same compound?
A: 89.1 µM (inactive)

Q: And the GI50 (RPMI-8226)?
A: 18.2 µM (inactive)

Q: And the GI50 (Hs-578T)?
A: 44.5 µM (inactive)

Q: And the GI50 (SK-MEL-2)?
A: 14.6 µM (inactive)

Q: And the GI50 (EKVX)?
A: 31.9 µM (inactive)

Q: And the GI50 (MOLT-4)?
A: 13.6 µM (inactive)

Q: And the GI50 (DU-145)?
A: 33 µM (inactive)

Q: And the GI50 (SF-539)?
A: 24 µM (inactive)

Q: And the GI50 (SF-295)?
A: 12.7 µM (inactive)

Q: What about the GI50 (HL-60) of the same compound?
A: 14.3 µM (inactive)

Q: What about the GI50 (A498) of the same compound?
A: 22.6 µM (inactive)

Q: What about the GI50 (A549) of the same compound?
A: 24.8 µM (inactive)

Q: And the GI50 (COLO 205)?
A: 18.6 µM (inactive)

Q: What about the GI50 (SK-MEL-5) of the same compound?
A: 11.1 µM (inactive)

Q: What about the GI50 (OVCAR-8) of the same compound?
A: 26.9 µM (inactive)

Q: What about the GI50 (KM12) of the same compound?
A: 13.2 µM (inactive)

Q: And the GI50 (OVCAR-5)?
A: 44.9 µM (inactive)

Q: What about the GI50 (MDA-MB-435) of the same compound?
A: 19.9 µM (inactive)

Q: What about the GI50 (ACHN) of the same compound?
A: 16.6 µM (inactive)

Q: And the GI50 (MDA-N)?
A: 16.8 µM (inactive)

Q: And the GI50 (NCI/ADR-RES)?
A: 20.4 µM (inactive)

Q: What about the GI50 (MDA-MB-231) of the same compound?
A: 30.2 µM (inactive)

Q: What about the GI50 (SW-620) of the same compound?
A: 27.6 µM (inactive)

Q: What about the GI50 (OVCAR-4) of the same compound?
A: 22.6 µM (inactive)

Q: What about the GI50 (SK-MEL-28) of the same compound?
A: 30.1 µM (inactive)

Q: What about the GI50 (SR) of the same compound?
A: 19.8 µM (inactive)

Q: And the GI50 (BT-549)?
A: 22.4 µM (inactive)

Q: What about the GI50 (IGROV-1) of the same compound?
A: 17.9 µM (inactive)

Q: What about the GI50 (UACC-62) of the same compound?
A: 28 µM (inactive)

Q: And the GI50 (HCC 2998)?
A: 42.7 µM (inactive)

Q: What about the GI50 (HCT-116) of the same compound?
A: 9.08 µM (inactive)

Q: And the GI50 (TK-10)?
A: 56.1 µM (inactive)

Q: What about the GI50 (M14) of the same compound?
A: 21.9 µM (inactive)

Q: What about the GI50 (K562) of the same compound?
A: 5.42 µM (inactive)

Q: And the GI50 (786-0)?
A: 30.5 µM (inactive)

Q: What about the GI50 (PC-3) of the same compound?
A: 13.6 µM (inactive)

Q: And the GI50 (NCI-H23)?
A: 38.2 µM (inactive)

Q: What about the GI50 (U-251) of the same compound?
A: 21.8 µM (inactive)

Q: What about the GI50 (T47D) of the same compound?
A: 12 µM (inactive)

Q: And the GI50 (HOP-92)?
A: 12.7 µM (inactive)

Q: What about the GI50 (CAKI-1) of the same compound?
A: 19.3 µM (inactive)

Q: And the GI50 (HT-29)?
A: 29.6 µM (inactive)

Q: What about the GI50 (UACC-257) of the same compound?
A: 30.5 µM (inactive)

Q: What about the GI50 (RXF 393) of the same compound?
A: 14.6 µM (inactive)

Q: What about the GI50 (SK-OV-3) of the same compound?
A: 19.1 µM (inactive)

Q: And the GI50 (HCT-15)?
A: 20.2 µM

Q: And the GI50 (SNB-19)?
A: 12 µM (inactive)

Q: And the GI50 (SF-268)?
A: > 100 µM (inactive)
